Assay results: patent US12084422B2, “Phenyl-n-quinoline derivatives for treating a RNA virus infection” (ABIVAX, priority 2018, dated 2024)

Assays:
[1] = test system: Chikungunya Virus (CHIKV) strain LR2006-OPY1 with GFP modification (CHIK 5'LR); assay: Inhibition of Chikungunya virus (CHIKV) production in infected HEK293T cell line (GFP fluorescence); format: cell-based; details: HEK-293T, infected HEK293T cells; for inhibition at 1 µM: compounds at 1 μM, MOI 0.1, 22 h, values above 100 lowered to 100, read-out: % CHIKV Inhibition Mean (n = 2); for IC50: second round of experiments
Method: The ability of the compounds to inhibit viral replication was assessed with an experiment in which infected cells were treated by compounds of formula (I) at 1 μM. As a positive control for inhibition of Chikungunya, Ribavirin was used. Toxicity of the compounds was assessed in parallel.
Human embryonic kidney cells 293T (HEK293T, CRL-11268) were maintained in Dulbecco's modified Eagle's Medium (DMEM, 31966-021, Thermo Fisher Scientific) supplemented with 10% of fetal bovine serum (FBS), penicillin and streptomycin. After removal of the medium, cells were washed with a Ca^2+- and Mg^2+-free salt solution to remove all traces of serum. After aspiration of wash solution, cells were dissociated with 0.25% Trypsin-EDTA solution and incubated 30 s at least in 37° ° C. incubator. Concentration of cell suspension was determined by an automatic cell counter (EVE, NanoEntek) and, if needed, adjusted to 0.33×10^6 cells/mL with DMEM medium supplemented with 10% FBS.
100 μL of the cell suspension were dispatched in a ViewPlate-96 Black (6005182, PerkinElmer) and in a transparent 96-well cell culture plate (655180, Greiner bio-one). After an incubation for 24 h at 37° C. under 5% of CO2, compounds were added at the proper concentration.
An intermediate dilution was prepared with DMSO (D8418, Sigma) at 2 mM in a 96-well V-bottom microplate from the stock solution:
Mix 1 μL of the 50 mM stock library in 25 μL of DMSO.
Mix 2 μL of the 25 mM stock library in 25 μL of DMSO.
An intermediate dilution was prepared with DMSO (D8418, Sigma) at 25 mM in a 96-well V-bottom microplate from the stock solution:
Mix 2 μL of the 50 mM stock library in 2 μL of DMSO.
Serial dilutions were performed in 2 μL of DMSO 13 times to reach 0.0015 mM as follows in table III:
For both screen and determination of IC50 1 μL of each solution was added in a 1 mL Masterblock 96 wells (Greiner bio-one, 780261) containing 1 mL of DMEM medium. As a positive control, 5 μL of a 80 mM Ribavirin solution (R9644, Sigma) is added to 1 mL of DMEM. On the other hand, DMSO is used as a negative control.
[…]. Vector Borne Zoonotic Dis. 2006; 6(4)). This modified virus was used to infect cells at MOI 0.1. […].
Medium was removed after 22 h at 37° ° C. under 5% of CO2 and cells were washed as described above. 60 μL of RIPA buffer (50 mM Tris-HCl pH8, 100 mM NaCl, 1 mM MgCl2, 1% Triton X-100) was added to cells and incubated for at least 20 min before reading fluorescence signal. Pierce 660 nm Protein Assay Reagent (22660, Thermo scientific) was used to normalize fluorescence signal by protein quantity.
A first round of experiments has been performed wherein the results are expressed as inhibition percentage, which is calculated as follows, through the following steps:
1. Fluorescence intensity (FI) 509 nm/Absorbance 660 nm (A660)=A
This ratio allows considering the infection (GFP virus) to the protein amount.
2. A′=A—background noise of non-infected plate,
3. B=Fluorescence intensity (FI)/Absorbance 660 nm (A660) of infected but non treated plates,
4. C=A′/B which is then converted as the percentage of infection after treatment, compared to non-treated sample, and subsequently as the […]. For instance, a value of 100 in Table IV here below means that, after treatment, the signal attributed to GFP fluorescence is abolished, which is correlated to the absence of infection.
This value corresponds to the inhibition's percentage.
The following Table IV encompasses said C′ value for some compounds as calculated above with a mean of 2 experiments, and the corresponding standard deviation.
Some values were originally above 100. In these cases, the value has been lowered to 100. This means that some molecules also have an impact on the viability of the cells. In other words, the A value may be lower than the background noise.
Moreover, for each measure, the test was performed with Ribavirin as control. The value of the inhibition percentage was checked, giving 100%.

[2] = test system: DENV-2 strain 16681; assay: Screening for DENV-2 inhibition using Viral ToxGlo assay in A549 cells; format: cell-based, Dengue 2 virus; details: Dengue virus, DENV2, A549, 120 h, read-out: % DENV-2 Inhibition Mean (n = 3)
Method: Protocol for Screening Antiviral Compounds for DENV-2 Inhibition and Cytotoxicity Using Viral ToxGlo Assay
A549 cells were maintained in Dulbecco's Modified Eagle Medium (DMEM) supplemented with 10% fetal bovine serum, 100 U/ml penicillin and 100 μg/ml streptomycin. For the purposes of the screening assay they were grown to 90% confluency, trypsinized and recovered. The trypsin was neutralised with cell culture media and cells were centrifuged at 150×g for 5 minutes before discarding the supernatant and resuspending cell pellet in assay media (DMEM supplemented with 2% fetal bovine serum and 100 U/ml penicillin and 100 μg/ml streptomycin). The cells were seeded into 96-well white clear-bottomed cell culture plates at a density of 1.0×10^4 cells/well in 50 μl. For the media/background control column assay media only was added. Cell plates were placed in a humid chamber and incubated overnight at 37° C./5% CO2. After overnight incubation cells were checked for confluency and healthy appearance.
Test compounds were prepared at a final concentration of 10 μM, in a maximum DMSO concentration of 1% (final assay concentration maximal 0.1% DMSO) and added to the cell plates in volumes of 10 μl. For cell control and virus control wells the test article solvent only was added. As a positive inhibition control, 7-Deaza-2′-C-methyladenosine was added at 100 μM in 3 wells. Virus (DENV-2 strain 16681) or assay media for cytotoxicity test wells and media/cell control wells was added immediately after test articles at an MOI of 0.5, 40 for 96 well plates respectively. Virus suspension was prepared by thawing DENV-2 frozen stocks and diluting to the required concentration of plaque forming units in assay media.
Cell plates were further incubated inside a humid chamber for 5 days p.i at 37° C./5% CO2. After the incubation period cells were observed under the microscope to check for characteristic cytopathic effect in virus control wells and healthy cells in the cell control wells. After plates were adjusted to room temperature 20 μl Viral ToxGlo (Promega) was added to each well of the 96-well cell plates. Plates were incubated at room temperature for 5 minutes before measuring the luminescence on a spectrophotometer (Envision, PerkinElmer).
DENV-2 inhibition was calculated as percentage of cytopathic effect inhibition relative to the virus control and cytotoxicity as percentage of cell survival relative to cell control wells.

SMILES	inhibition at 1 µM [1] [%]	IC50 [1] [nM]	inhibition at 10 µM [2] [%]
CCc1cc(OC(F)(F)F)ccc1Nc1ccc2cccc(Cl)c2n1 [Compound 2, 8-chloro-N-(2-ethyl-4-(trifluoromethoxy)phenyl)quinolin-2-amine]	100	1 to 200	–
CC(C)Cc1cc(OC(F)(F)F)ccc1Nc1ccc2cccc(Cl)c2n1 [Compound 3, 8-chloro-N-(2-isobutyl-4-(trifluoromethoxy)phenyl)quinolin-2-amine]	100	–	–
FC(F)(F)Oc1ccc(Nc2ccc3cccc(Cl)c3n2)c(C2CC2)c1 [Compound 4, 8-chloro-N-(2-cyclopropyl-4-(trifluoromethoxy)phenyl)quinolin-2-amine]	100	1 to 200	–
CCc1cc(OC(F)(F)F)cc(C)c1Nc1ccc2cccc(Cl)c2n1 [Compound 5, 8-chloro-N-(2-ethyl-6-methyl-4-(trifluoromethoxy)phenyl)quinolin-2-amine]	–	–	156
CCc1cc(OC(F)(F)F)ccc1Nc1ccc2ccccc2n1 [Compound 7, N-(2-ethyl-4-(trifluoromethoxy)phenyl)quinolin-2-amine]	99	–	–
FC(F)(F)Oc1ccc(Nc2ccc3ccccc3n2)c(C2CC2)c1 [Compound 8, N-(2-cyclopropyl-4-(trifluoromethoxy)phenyl)quinolin-2-amine]	100	–	–
CCOc1ccc(Nc2ccc3cccc(Cl)c3n2)c(C)c1 [Compound 12, 8-chloro-N-(4-ethoxy-2-methylphenyl)quinolin-2-amine]	95	–	129
Cc1cc(OCCOC(F)(F)F)ccc1Nc1ccc2cccc(Cl)c2n1 [Compound 14, 8-chloro-N-(2-methyl-4-(2-(trifluoromethoxy)ethoxy)phenyl)quinolin-2-amine]	91	–	–
Cc1cc(OC2CCCC2)ccc1Nc1ccc2cccc(Cl)c2n1 [Compound 16, 8-chloro-N-(4-(cyclopentyloxy)-2-methylphenyl)quinolin-2-amine]	98	1 to 200	77
Cc1cc(OC2CCCCC2)ccc1Nc1ccc2cccc(Cl)c2n1 [Compound 17, 8-chloro-N-(4-(cyclohexyloxy)-2-methylphenyl)quinolin-2-amine]	100	1 to 200	–
CC(C)Oc1ccc(Nc2ccc3cccc(Cl)c3n2)c(C2CC2)c1 [Compound 20, 8-chloro-N-(2-cyclopropyl-4-isopropoxyphenyl)quinolin-2-amine]	99	1 to 200	94
Cc1c(Nc2ccc3cccc(Cl)c3n2)ccc(OC(C)C)c1C [Compound 21, 8-chloro-N-(4-isopropoxy-2,3-dimethylphenyl)quinolin-2-amine]	100	1 to 200	–
Cc1cc(OC2CCC2)ccc1Nc1ccc2cccc(Cl)c2n1 [Compound 22, 8-chloro-N-(4-cyclobutoxy-2-methylphenyl)quinolin-2-amine]	100	1 to 200	82
Cc1cc(OCc2ccccn2)ccc1Nc1ccc2cccc(Cl)c2n1 [Compound 23, 8-chloro-N-(2-methyl-4-(pyridin-2-ylmethoxy)phenyl)quinolin-2-amine]	82	–	–
Fc1ccccc1Oc1ccc(Nc2ccc3ccccc3n2)cc1 [Compound 29, N-(4-(2-fluorophenoxy)phenyl)quinolin-2-amine]	97	–	–
Cc1ccc(Oc2ccc(Nc3ccc4cccc(Cl)c4n3)cc2)cc1 [Compound 31, 8-chloro-N-(4-(p-tolyloxy)phenyl)quinolin-2-amine]	93	–	–
Fc1ccccc1Oc1ccc(Nc2ccc3cccc(Cl)c3n2)cc1 [Compound 32, 8-chloro-N-(4-(2-fluorophenoxy)phenyl)quinolin-2-amine]	90	–	–
CCc1cc(Oc2ccccc2F)ccc1Nc1ccc2ccccc2n1 [Compound 39, N-(2-ethyl-4-(2-fluorophenoxy)phenyl)quinolin-2-amine]	99	1 to 200	104
Cc1cc(OC(C)C)c(C(C)C)cc1Nc1ccc2cccc(Cl)c2n1 [Compound 40, 8-chloro-N-(4-isopropoxy-5-isopropyl-2-methylphenyl)quinolin-2-amine]	–	1 to 200	97
CCc1cc(OC2CCC2)ccc1Nc1ccc2cccc(Cl)c2n1 [Compound 41, 8-chloro-N-(4-cyclobutoxy-2-ethylphenyl)quinolin-2-amine]	–	1 to 200	–
Clc1cccc2ccc(Nc3ccc(OC4CCC4)cc3C3CC3)nc12 [Compound 42, 8-chloro-N-(4-cyclobutoxy-2-cyclopropylphenyl)quinolin-2-amine]	–	1 to 200	84
COc1ccc(Oc2ccc(Nc3ccc4ccccc4n3)c(C)c2)c(F)c1 [Compound 45, N-(4-(2-fluoro-4-methoxyphenoxy)-2-methylphenyl)quinolin-2-amine]	–	1 to 200	–
Cc1cc(Oc2ccccc2F)c(C)cc1Nc1ccc2cccc(Cl)c2n1 [Compound 63, 8-chloro-N-(4-(2-fluorophenoxy)-2,5-dimethylphenyl)quinolin-2-amine 2,2,2-trifluoroacetate]	–	–	74
CCc1cc(Oc2ccc(OC)cc2F)ccc1Nc1ccc2ccccc2n1 [Compound 76, N-(2-ethyl-4-(2-fluoro-4-methoxyphenoxy)phenyl)quinolin-2-amine]	–	–	78
COc1ccc(Oc2ccc(Nc3ccc4ccccc4n3)cc2)c(F)c1 [Compound 77, N-(4-(2-fluoro-4-methoxyphenoxy)phenyl)quinolin-2-amine]	–	–	87
